Results taken from ChEMBL document CHEMBL3430912, “GSK Tres Cantos Anti-Kinetoplastid Screening (TCAKS) Data”.

Experiments:
[1] = target: Sterol 14-alpha demethylase (Trypanosoma cruzi (strain CL Brener), UniProt Q7Z1V1); assay: GSK_TCAKS: pIC50 CYP51 from Trypanosoma cruzi.; type: functional
[2] = system: NIH3T3; assay: GSK_TCAKS: pIC50 NIH 3T3 cell line viability assay using luminiscence. Tissue culture surface treated assay plates (1536-well) were used. […] The 100% cells survival control was determined exposing the host-cells to a 0.5% DMSO concentration, whereas the 100% toxicity control was achieved by seeding the cells in presence of Amphotericin B at 50uM. Plates were incubated for four days at 37C, 5% CO2. The assay readout was developed by addition of 5uL of CellTiter-Glo Reagent following the manufacturer's instructions. Luminiscence was measured using a ViewLux.; type: functional, cell-based; details: Mus musculus, NIH3T3, 96 h
[3] = GSK_TCAKS: pIC50 HepG2 human cell line viability assay using luminiscence. […] Seeding density was checked to ensure that new mono-layers were not more than 50% confluent at the time of harvesting. Cell suspension was added to 500 mL of the same medium at a final density of 1.2 * 10^5 cells/mL. This cell suspension was dispensed (25 uL, 3000 cells per well) into 384-well clear-bottom plates using a Multidrop Combi dispenser. Prior to addition of the cell suspension, the screening compounds (250 nL) were pre-dispensed into the plates with an Echo liquid handler. Plates were incubated for 48 h at 37C, 5% CO2. After incubation, plates equilibrated at room temperature for 30 min before proceeding to develop the luminescent signal. The signal developer, CellTiter-Glo Reagent, was allowed to equilibrate at room temperature for 30 min and added to the plates (25uL per well) using a Multidrop Combi dispenser. Plates were left for 10 min at room temperature for stabilization and then read using a ViewLux.; type: toxicity, cell-based
[4] = system: Trypanosoma cruzi; assay: GSK_TCAKS: pIC50 Trypanosoma cruzi viability assay using beta-GAL activity. This assay was run at single shot at 5uM compound concentration per well. The biological reagents consisted of NIH-3T3 host cells and trypomastigotes parasitic cells; both cell types were set to a 3.3 * 10^5 cells/mL dilution in assay DMEM by means of a CASY cell counter device using a 60um capillary. 6 uL of the mixture were dispensed per well (about 1 * 10^3 host-cells and 1 * 10^3 parasites) with a Multidrop Combi dispenser. […] In all wells, the percentage of DMSO never exceeded 0.5%. Plates incubated for four days at 37C, 5% CO2. The substrate used for the assay fluorescence intensity (FLINT) readout was resorufin-beta-D-galactopiranoside (Sigma-Aldrich) at 5uM per well. It was diluted in PBS supplemented with the soft detergent Igepal (Fluka).; type: functional, organism-based, Mus musculus; details: Tulahuen, NIH3T3
[5] = system: Leishmania donovani; assay: GSK_TCAKS: pIC50 Leishmania donovani Imaging: Amastigotes/Macrophages. Assay plates (384-well) were prepared by adding 250nL of compound to each well. For single shot assay, the final compound concentration was 5 uM. […] Automated image analysis was performed with a script developed on Acapella High Content Imaging and Analysis Software (PerkinElmer). Output: Average number of amastigotes per macrophage cell were reported for each well.; type: functional, organism-based, Homo sapiens; details: THP-1
[6] = system: Trypanosoma cruzi; assay: (§1) GSK_TCAKS: pIC50 H2C9 Imaging: H9c2 Host Cardiomyocytes. […] Cells were then washed once with PBS before infection. T. cruzi trypomastigotes, collected at days 5 to 8 after infection from LLC-MK2 parasite infected cultures, were allowed to swim out for 4h at 37C from a centrifuged pellet (2,500 rpm/10 min/room temperature). Trypomastigotes were then collected and counted in a CASY Cell Counter. Trypomastigotes, in supplemented DMEM, were added to H9c2 cultures in a multiplicity of infection of 1 and incubated for 18 h. Cells were washed once with PBS before incubation of the infected H9c2 monolayer with trypsin (Life-Technologies) to detach cells from the flask. Cells were counted in a CASY Cell Counter using a 150 um capillary and their density set at 5 * 10^4 cells per mL in supplemented assay DMEM. Infected H9c2 were dispensed into 384-well poly-lysine coated assay plates at 50uL per well using a Multidrop Combi dispenser. After seeding them, the plates were incubated at 37C, 5% CO2 for 72h. Cultures were then fixed and stained by addition of 50 uL of a solution containing 8% formaldehyde and 4 uM DRAQ5 DNA dye (BioStatus, UK) per well. […] Five images were collected per well for reliable statistical analysis. Automated image analysis was performed with a script developed on Acapella High Content Imaging and Analysis Software (PerkinElmer). Output: Number of H9c2 Host Cardiomyocytes nuclei to determine drug-related cytotoxicity.; type: functional, organism-based, Rattus norvegicus; details: H9c2, 4 h
[7] = system: Trypanosoma brucei brucei; assay: GSK_TCAKS: pIC50 Trypanosoma brucei viability assay using luminiscence. Assay plates (1536-well) were prepared. T. brucei cultures were harvested and counted in a CASY cell counter. A parasite suspension was prepared at a final concentration of 5 * 10^4 cells/mL in complete HMI9 medium and 6uL was dispensed to all wells containing compounds using a Multidrop Combi dispenser. 6uL of HMI9 media with 0.4% DMSO were dispensed to control columns. Plates were incubated for 24 h at 37C, 5% CO2 then tempered for 10 min at room temperature. ATP content was quantified by adding 4 uL of CellTiter-Glo Reagent (Promega) according to the manufacturer's instructions. Luminescence was measured using a ViewLux.; type: functional, organism-based; details: Lister 427, CASY
[8] = system: Leishmania donovani; assay: GSK_TCAKS: pIC50 Leishmania donovani Imaging: THP-1 Host Macrophages. Assay plates (384-well) were prepared by adding 250nL of compound to each well. For single shot assay, the final compound concentration was 5 uM. […] Automated image analysis was performed with a script developed on Acapella High Content Imaging and Analysis Software (PerkinElmer). Output: THP-1 cell count were reported for each well.; type: functional, organism-based, Homo sapiens
[9] = system: Trypanosoma cruzi; assay: as §1, with “Trypanosoma cruzi” for “H2C9”, “Amastigotes/Cell.” for “H9c2 Host Cardiomyocytes.”, “number” for “Number”, “amastigotes per cell as infection level measurement.” for “H9c2 Host Cardiomyocytes nuclei to determine drug-related cytotoxicity.”; type: functional, organism-based, Rattus norvegicus; details: H9c2, 4 h
[10] = system: Trypanosoma brucei brucei; assay: GSK_TCAKS: pIC50 Trypanosoma brucei viability assay using fluorescence intensity. Assay plates (1536-well) were prepared by dispensing 25nL of compound solution per well using an Echo acoustic dispenser (Labcyte).; type: functional, organism-based; details: Lister 427, 2 h
[11] = system: Leishmania donovani; assay: GSK_TCAKS: pIC50 Leishmania donovani Imaging: Infected Macrophages. Assay plates (384-well) were prepared by adding 250nL of compound to each well. For single shot assay, the final compound concentration was 5 uM. […] Automated image analysis was performed with a script developed on Acapella High Content Imaging and Analysis Software (PerkinElmer). Output: Percent of infected macrophage cells were reported for each well.; type: functional, organism-based, Homo sapiens; details: THP-1
[12] = system: Trypanosoma cruzi; assay: as §1, with “Trypanosoma cruzi” for “H2C9”, “Infected Cells.” for “H9c2 Host Cardiomyocytes.”, “percentage” for “Number”, “infected cells per well as a second infection marker.” for “H9c2 Host Cardiomyocytes nuclei to determine drug-related cytotoxicity.”; type: functional, organism-based, Rattus norvegicus; details: H9c2, 4 h
[13] = system: Leishmania donovani; assay: GSK_TCAKS: pIC50 Leishmania donovani viability assay using fluorescence intensity. Assay plates (1536-well) were prepared by adding 30nL per well of compound. For single shot assay, the final compound concentration was 5uM. […] Briefly, eGFP LdBOB axenic amastigotes were harvested, fixed and counted in a CASY cell counter (Roche-Applied Science). A final concentration of 1.5 * 10^5 cells per well were prepared in amastigote media containing 500 U/mL penicillin/streptomycin (Invitrogen) and 6uL was dispensed to each experimental well using a Multidrop Combi dispenser (Thermo Scientific). 6uL of assay media was dispensed to control columns used as reference for 100% compound response. Following incubation for 72 h at 37C, 5% CO2, 2 uL of resazurin was added to each well at a final concentration of 0.5 mM in phosphate buffered saline (PBS) with IGEPAL (Sigma-Aldrich), 0.05% (v/v).; type: functional, organism-based

Sequence of Sterol 14-alpha demethylase (Q7Z1V1 whole entry): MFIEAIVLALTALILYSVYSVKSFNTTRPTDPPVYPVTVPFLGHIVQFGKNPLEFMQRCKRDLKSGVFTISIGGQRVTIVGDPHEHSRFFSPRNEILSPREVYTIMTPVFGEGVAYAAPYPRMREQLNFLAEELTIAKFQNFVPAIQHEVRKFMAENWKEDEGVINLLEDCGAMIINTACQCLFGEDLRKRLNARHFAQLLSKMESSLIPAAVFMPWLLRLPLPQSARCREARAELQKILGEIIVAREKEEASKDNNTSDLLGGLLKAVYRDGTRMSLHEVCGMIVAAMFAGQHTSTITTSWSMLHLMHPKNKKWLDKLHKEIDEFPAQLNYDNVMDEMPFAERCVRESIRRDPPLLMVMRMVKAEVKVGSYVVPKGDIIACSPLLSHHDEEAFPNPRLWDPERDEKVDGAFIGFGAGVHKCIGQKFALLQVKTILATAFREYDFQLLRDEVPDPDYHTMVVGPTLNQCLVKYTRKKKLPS

Row | SMILES | IC50 [1] [µM] | IC50 [2] [µM] | IC50 at 48 h [3] [µM] | IC50 [4] [µM] | IC50 [5] [µM] | IC50 [6] [µM] | IC50 [7] [µM] | IC50 [8] [µM] | IC50 [9] [µM] | IC50 [10] [µM] | IC50 [11] [µM] | IC50 [12] [µM] | IC50 [13] [µM]
1 | Cc1ccc(C)c(-n2nnnc2Sc2nc([N+](=O)[O-])nn2C)c1 | > 100 | > 50.1 | > 100 | 0.501 | > 50.1 | > 50.1 | 15.8 | > 50.1 | 0.251 | 12.6 | > 50.1 | 0.794 | > 50.1
2 | CC(Cn1ccnc1)NC(=O)C1CC1c1cccc(Cl)c1Cl (stereo not given) | 0.126 | > 50.1 | > 100 | 0.141 | 10 | > 50.1 | > 39.8 | > 50.1 | 0.2 | > 39.8 | > 50.1 | 0.251 | 15.8
3 | COc1ccc2ncc(F)c(NC(=O)[C@]3(O)CC[C@@H](NCc4ccc5c(c4)OCCO5)CC3)c2n1 | 63.1 | 7.94 | 50.1 | 0.158 | 15.8 | 31.6 | 1.58 | 20 | 0.158 | 0.794 | 31.6 | 0.126 | 39.8
4 | O=C(C1CCCCC1)N1CCN(c2nnc(-c3ccccc3)c3ccccc23)CC1 | > 100 | > 50.1 | > 100 | 1 | 20 | > 50.1 | > 39.8 | 50.1 | 0.398 | 10 | > 50.1 | 0.631 | > 50.1
5 | O=C(Cn1cnc2cc([N+](=O)[O-])ccc2c1=O)NCCc1ccc(Cl)cc1Cl | > 100 | > 50.1 | > 100 | 0.631 | > 50.1 | > 50.1 | > 39.8 | > 50.1 | 0.2 | 12.6 | > 50.1 | 0.398 | > 50.1
6 | O=c1ccn(-c2ccc([N+](=O)[O-])cc2Cl)c2ccc(F)cc12 | 15.8 | > 50.1 | > 100 | 1.58 | > 50.1 | > 50.1 | > 39.8 | > 50.1 | 1.26 | 25.1 | > 50.1 | 3.98 | > 50.1
7 | CN(C(=O)Nc1ccc2c(c1)CCN(C1CCC1)CC2)c1ccc(C#N)cc1 | > 100 | 39.8 | > 100 | 2 | > 50.1 | > 50.1 | 0.631 | > 50.1 | 2 | 0.2 | > 50.1 | 3.98 | 39.8
8 | COc1ccc2nccc([C@H](O)CN3CC[C@H](NC(=O)c4ccc(Br)cc4)[C@@H](O)C3)c2n1 | 6.31 | > 50.1 | > 100 | 0.251 | > 50.1 | 2 | 0.501 | > 50.1 | 0.158 | 0.2 | > 50.1 | 1.58 | 3.16
9 | O=C(Nc1cccc(Cl)c1)N1CCCCC1c1cccnc1 (stereo not given) | 0.02 | 31.6 | > 100 | 0.178 | > 50.1 | > 50.1 | > 39.8 | > 50.1 | 0.2 | > 39.8 | > 50.1 | 0.2 | 3.16
10 | COc1ccc([N+](=O)[O-])cc1NC(=O)Nc1cccc(Cl)c1 | > 100 | > 50.1 | > 100 | 0.794 | > 50.1 | > 50.1 | 20 | 50.1 | 0.398 | 6.31 | > 50.1 | 10 | > 50.1
